These results are taken from patent US20120201902A1, “ANTIMICROBIAL/PRESERVATIVE COMPOSITIONS COMPRISING BOTANICALS” (The Trustees of Columbia University in the City of New York, priority 2009, published 2012).

For data set [1], the system named is Aspergillus niger. As to the kind of experiment: Preservative efficacy in cream (Method 1), Aspergillus niger. It is filed as cell-based. As to conditions: for efficacy of solvent added to GSE, lemongrass oil and lactic acid: against A. niger.
Data set [2] relates to S. aureus. As to the kind of experiment: In vitro rapid (15 seconds) antibacterial activity (Method A), S. aureus. It is filed as cell-based. As for the experimental part: Method A: 0.8 ml of a test solution was mixed with 0.1 ml of bacterial culture (10^8 cfu/ml) and 0.1 ml of bovine serum and vortexed for 15 seconds. 9 ml of drug neutralizing Fluid (DNF) was then added and serially diluted with DNF and plated on trypticase soy agar (TSA) plates. The plates were incubated for 24-48 hours at 37° C., and colony counts were determined. For a control, a gel base was used alone. The gel base (Base 26) contains 0.2% hydroxymethylpropyl cellulose and 0.2% polyquaternium10, and 0.5% 1,3 propanediol in water.
The present example evaluates rapid (15 seconds) antibacterial activity of various agents, alone and in combination, in an aqueous gel base (Base 26) using S. aureus as the test organism. One method of testing (Method A) uses 0.8 ml of the test solution mixed with 0.1 ml of bacterial culture (10^8 cfu/ml) and 0.1 ml of Bovine serum. The solution is vortexed for 15 seconds. 9.0 ml of drug neutralizing Fluid (DNF) is then added and then serially diluted with DNF and plated on TSA plates. Plates are incubated for 24-48 hours at 37° C. and colony counts were determined. For A control, the base was used alone.

Data set [3] concerns C. albicans. In words: Preservative efficacy in cream (Method 1), C. albicans. As to conditions: for Efficacy (log10 reduction from control growth) C. albicans: Table 67. Format: cell-based, Candida albicans.
Data set [4] relates to S. aureus. As to the kind of experiment: Synergistic antibacterial activity of benzyl alcohol and citrus fruit extract in proteinaceous media (1 minute). It is filed as cell-based. The settings on record: 2.0 % w/w, media 50% TSB and 50% bovine serum. As for the experimental part: Citrus fruit extract was obtained from PL Thomas (BiosecurF440D organic citrus fruit extract concentrate). The following concentrations of compounds were added to S. aureus culture (10^8 cfu/ml of media containing 50% TSB and 50% bovine serum). After 1 minute, drug neutralizing fluid (DNF) was added and mixed. The samples were then serially diluted with DNF and plated in TSA plate. The plates were incubated for 24-48 hours at 37° C. and colony counts were determined.

Data set [5] concerns S. aureus. The settings on record: erythromycin, gentamicin, vancomycin, ciproflaxin, clindamycin, tetracycline; cited from earlier work.
Data set [6] has as its system C. albicans. In words: Efficacy of antifungal creams in pig skin method (Method D), loosely and tightly adhered organism. It is filed as cell-based, Candida albicans. As to conditions: conclusion of Example 31 (Methods C, D, E). As for the experimental part: Method D: Evaluation of efficacy in pig skin method (test organism C. albicans). […] At the end of incubation, DNF (drug neutralizing fluid) was added to each piece, mixed to remove the cream and loosely adhered bacteria on the skin. Loosely adhered organism: The fluid containing the cream was removed, serially diluted with DNF and aliquots plated on TSA and incubated for 24-48 hours and colonies were counted. Tightly adhered organism: DNF was added to the rinsed pigskin and sonicated for 20 minutes to remove the tightly adhered bacteria. The fluid after sonication was serially diluted, plated on TSA and, incubate for 24-48 hours and colony counts were determined.

Data set [7] concerns S. aureus. In words: In vitro rapid (15 seconds) efficacy of hand disinfectant soap (Method A with 10^9 organism). It is filed as cell-based.
Description: The method of testing is same method as described above as Method A, however using 10^9 organism instead 10^8.
The test system of data set [8] is S. aureus. In words: In vitro rapid (15 second) efficacy of surface disinfectants. Format: cell-based. As to conditions: surfactant base. As for the experimental part: The following ingredients were added in a surfactant base containing water and alkyl polyglycoside surfactant (Glucopon) (Table 125).
Table 126 provides the dadta for an in vitro rapid (15 second) antibacterial efficacy of surface disinfectants against S. aureus.
The following ingredients were added in a surfactant base containing water and alkyl polyglycoside surfactant (Glucopon) (Table 127).
Table 128 provides the results from an in vitro rapid (15 second) antibacterial efficacy of surface disinfectants against S. aureus.

The conditions of data set [9]: cited from earlier work.
Where [10] appears, read: Table 106, 3.0 % w/w in Base 26, 15 seconds.
Where [11] appears, read: Table 106, 0.5 % w/w in Base 26, 15 seconds.
Setting [12] is: Table 106, 2.0 % w/w in Base 26, 15 seconds.
Setting [13] is: Table 107, 2.0 % w/w, 15 seconds.
Where [14] appears, read: Table 106, 0.2 % w/w in Base 26, 15 seconds.

On to `OCCCO` [1,3 propanediol], for which, in data set [1] (1-2% preservative in hydrophilic cream base, pH 4.5-5.0, tested against Aspergillus niger and C. albicans), the “synergistic efficacy of benzyl alcohol and GSE, with and without 1,3 propanediol” value is given as “enhances the activity”. For the same compound, the log10 reduction in data set [2] (setting [10]) is on record as 0.2 log10.
Turning to `OCc1ccccc1` [Benzyl alcohol, benzyl alcohol], the “Efficacy (log10 reduction from control growth) C. albicans” value in [3] (0.5 % w/w in cream) amounted to 1.0 log10; in [3] (1.0 % w/w in cream), 2.7 log10. Moreover, the “efficacy of solvent added to GSE, lemongrass oil and lactic acid” value in data set [3] (against C. albicans) and in [1] was “higher efficacy” throughout. The “synergistic activity with Zemea” value in data set [3] (higher concentrations of benzyl alcohol, against C. albicans) is given as “synergistic activity”. The “synergistic activity with the combination of GSE, lemongrass oil, and lactic acid” value in [1] (Example 5, organism not given) is “synergistic activity”. For the same compound, the “Efficacy (log10 reduction from control growth) A. niger” value in data set [1] (Table 67, 0.5 % w/w in cream) worked out at 1.0 log10; in data set [1] (Table 67, 1.0 % w/w in cream), 1.9 log10. In addition, the log10 reduction in data set [2] (setting [11]) turned out to be 0.13 log10; in data set [2] (Table 106, 1.0 % w/w in Base 26, 15 seconds), 0.14 log10; in data set [2] (setting [12]) it was 0.18 log10; in data set [2] (setting [10]), 0.2 log10; in data set [2] (setting [13]) it was 0.12 log10. Besides, the “synergistic activity with citric and lactic acid” value in [2] (benzyl alcohol at 1% and more than 1%, Base 26, 15 seconds) is given as “synergistic activity”. The “activity along with fruit acid without any botanical extracts” value in data set [2] (benzyl alcohol at higher concentrations, 15 seconds) is given as “effective”. Also, the “Antibacterial activity against S. Aureus (10^8 CFU/ml) log10 reduction” value in data set [4] is reported as 0.1 log10.
Take `N=C(NCCCCCCNC(=N)NC(=N)Nc1ccc(Cl)cc1)NC(=N)Nc1ccc(Cl)cc1.O=C(O)[C@H](O)[C@@H](O)[C@H](O)[C@H](O)CO.O=C(O)[C@H](O)[C@@H](O)[C@H](O)[C@H](O)CO` [Chlorhexidine gluconate]: the log10 reduction in data set [2] (setting [11]) was found to be 2.4 log10.
In the case of `N=C(NCCCCCCNC(=N)NC(=N)Nc1ccc(Cl)cc1)NC(=N)Nc1ccc(Cl)cc1.O=C(O)[C@H](O)[C@@H](O)[C@H](O)[C@H](O)CO.O=C(O)[C@H](O)[C@@H](O)[C@H](O)[C@H](O)CO` [Chlorhexidine gluconte], the log10 reduction in data set [2] (setting [14]) came to 1.43 log10.
Same read-out and setting: under `O=C(O)CC(O)(CC(=O)O)C(=O)O` [Citric acid] stands 0.1 log10.
Turning to `OCc1ccccc1` [Preservative 2], the “Efficacy (log10 reduction from control growth) A. niger” value in data set [1] (Table 59, preservative in hydrophilic cream base, pH 4.5-5.0, benzyl alcohol (natural), GSE, Zemea, control growth 1 × 10^4-5 × 10^4) worked out at 0.98 log10.
On to `CCCCC(CC)COCC(O)CO` (centres unmarked) [Sensiva, Octoxyglycerin], for which the “efficacy of solvent added to GSE, lemongrass oil and lactic acid” value in data set [3] (against C. albicans) is “effective against C. albicans”; in data set [1], “not against A. niger”.
As for `OCCCO` [Zemea ®], the “Efficacy (log10 reduction from control growth) C. albicans” value in [3] (0.5 % w/w in cream) stood at 0.5 log10. In [1] (Table 67, 0.5 % w/w in cream), the “Efficacy (log10 reduction from control growth) A. niger” value was determined as 0.85 log10.
For the compound `CC(C)=CCC/C(C)=C/CC1CCCC1=O` (centres unmarked) [apritone], the “susceptibility of S. aureus to antibiotics” value (“susceptibility of S. aureus” for short) in data set [5] is listed as “enhanced the susceptibility”.
Regarding `O=C1O[C@H]([C@@H](O)CO)C(O)=C1O` [ascorbic acid], in data set [2], the “synergistic activity of organic acids with benzyl alcohol” value is listed as “not effective”. For the same compound, in data set [2] (setting [13]), the log10 reduction worked out at 0.1 log10.
The matching figures for `O=C(O)c1ccccc1` [benzoic acid]: “synergistic activity” and 0.1 log10.
For `CC(C)=CCC[C@](C)(O)C1CC=C(C)CC1` (some centres unmarked) [bisabolol], the “susceptibility of S. aureus” value in data set [5] is listed as “enhanced the susceptibility”.
As to `[H]/N=C(\N/C(=N/[H])NCCCCCCNC(=N)NC(=N)Nc1ccc(Cl)cc1)Nc1ccc(Cl)cc1` [chlorhexidine, reference compound], the “synergistic activity with benzyl alcohol and fruit acids” value in data set [2] (Base 26, 15 seconds) was “synergistic activity”.
`CC(C)=CCCC(C)=CCCC(C)=CCO` [farnesol]: the “susceptibility of S. aureus” value in [5] was “enhanced the susceptibility”.
Take `CC(O)C(=O)O` (centres unmarked) [lactic acid]: the “synergistic activity of organic acids with benzyl alcohol” value in [2] was “synergistic activity”. The log10 reduction in [2] (setting [14]) came out at 0.1 log10; in data set [2] (setting [12]), 0.11 log10; in [2] (setting [13]), 0.11 log10.
Take `Clc1ccc(COC(Cn2ccnc2)c2ccc(Cl)cc2Cl)c(Cl)c1` (centres unmarked) [miconazole]: the “antifungal activity with synergistic combination of benzyl alcohol, fruit acid, biguanide and benzalkonium chloride” value in [6] was “significantly enhanced”.
For `C=CC(C)(O)CCC=C(C)CCC=C(C)C` (centres unmarked) [nerolidol], the “susceptibility of S. aureus” value in data set [5] is on record as “enhanced the susceptibility”.
For `Oc1cc(Cl)ccc1Oc1ccc(Cl)cc1Cl` [triclosan], the “synergistic action with BPC (benzyl alcohol, propanediol, citric acid)” value in data set [7] is on record as “synergistic action”.
Turning to “(polyiminoimidocarbonyliminoimidocarbonyl-iminohexamethylene)hydro-chloride [Vantocil]”, in data set [8], the “synergistic activity with benzyl alcohol and fruit acids” value is “synergistic activity”; the “synergistic activity with benzyl alcohol and lactic acid” value was “synergistic activity”.
Regarding “benzalkonium chloride [reference compound]”, in [2] (Base 26, 15 seconds), the “synergistic activity with benzyl alcohol and fruit acids” value is “synergistic activity”. The log10 reduction in data set [2] (Table 106, 0.1 % w/w in Base 26, 15 seconds) was determined as 2.7 log10. Besides, the “synergistic action with BPC (benzyl alcohol, propanediol, citric acid)” value in [7] was “synergistic action”.
Take zinc picolinate: the “water solubility (in words)” value in data set [9] was “moderately water soluble”.
